Tested on: mTORc1 signaling, pS6 (Ser240/244) in MEF TSCl−/− cells
Assay: Cell-based assay for rapalog potency (pS6) in MEF TSCl−/− cells
Details: Mus musculus, 2 hours treatment, average from multiple assays
Protocol: Rapalog potency was determined using MEF TSCl−/− cell based assay. MEF TSCl−/− cells are Mouse Embryonic Fibroblasts deficient in Tuberous sclerosis protein—TSCl, which negatively regulates mTORc1 signaling and thus display constitutive mTORc1 activation, resulting in phosphorylation (activation) of downstream molecules. This cell-based assay is used to measure inhibition (de-phosphorylation) of S6 and 4EBP1 by rapalogs or other mTOR inhibitors.
MEF TSCl−/− cells were plated on Poly-D-lysine coated 384 well Griener clear bottom plates and incubated overnight at 37° C., 5% CO2. On the following day, cells were washed 8 times with “Hard starve” solution (1 L DPBS+1 g D-(+) glucose+10 ml of 7.5% Sodium Bicarbonate+20 ml of 1M HEPES) and incubated for further 2 hours in the same solution. Cells were next treated with compounds with decreasing concentrations (8 points at 3.16 fold dilutions) and incubated for 2 hours at 37° C., 5% CO2. Cells were fixed with 4% paraformaldehyde for 30 min and washed 5 times with TBS-EDTA followed by immuno-staining with fluorescent tag labeled antibodies for pS6 (Ser240/244) (Cell Signaling #9468) and p4EBP1 (Thr 37/46) (Cell Signaling #5123). Nuclei were visualized with Hoechst (ThermoFisher Scientific #H3570) staining. Cells were imaged (InCell 600) using respective fluorescence channels and the potency of mTOR inhibitors was defined by pS6 IC50 (nM).
In vitro potency of mTOR inhibitors was defined by pS6 IC50 (nM) in MEF TSCl−/− cells.
IC50 values are calculated as the average from multiple assays.

| Compound | IC50 |
| --- | --- |
| CCCS(=O)(=O)N[C@H]1C[C@@H]2CC[C@@H](C)[C@@](O)(O2)C(=O)C(=O)N2CCCC[C@H]2C(=O)O[C@H]([C@H](C)C[C@@H]2CC[C@@H](O)[C@H](OC)C2)CC[C@H](C)/C=C(\C)[C@@H](O)[C@@H](OC)C(=O)[C@H](C)C[C@H](C)/C=C/C=C/C=C/1C [Compound 5] | 1.8 nM |
| CCCS(=O)(=O)N[C@@H]1C[C@@H]2CC[C@@H](C)[C@@](O)(O2)C(=O)C(=O)N2CCCC[C@H]2C(=O)O[C@H]([C@H](C)C[C@@H]2CC[C@@H](O)[C@H](OC)C2)CC[C@H](C)/C=C(\C)[C@@H](O)[C@@H](OC)C(=O)[C@H](C)C[C@H](C)/C=C/C=C/C=C/1C [Compound 6] | 13 nM |
| CO[C@@H]1C[C@H](C[C@@H](C)[C@@H]2CC[C@H](C)/C=C(\C)[C@@H](O)[C@@H](OC)C(=O)[C@H](C)C[C@H](C)/C=C/C=C/C=C(\C)[C@@H](NS(=O)(=O)C(C)C)C[C@@H]3CC[C@@H](C)[C@@](O)(O3)C(=O)C(=O)N3CCCC[C@H]3C(=O)O2)CC[C@H]1O [Compound 7] | 2.4 nM |
| CO[C@@H]1C[C@H](C[C@@H](C)[C@@H]2CC[C@H](C)/C=C(\C)[C@@H](O)[C@@H](OC)C(=O)[C@H](C)C[C@H](C)/C=C/C=C/C=C(\C)[C@H](NS(=O)(=O)C(C)C)C[C@@H]3CC[C@@H](C)[C@@](O)(O3)C(=O)C(=O)N3CCCC[C@H]3C(=O)O2)CC[C@H]1O [Compound 8] | 4.5 nM |
| CO[C@@H]1C[C@H](C[C@@H](C)[C@@H]2CC[C@H](C)/C=C(\C)[C@@H](O)[C@@H](OC)C(=O)[C@H](C)C[C@H](C)/C=C/C=C/C=C(\C)[C@@H](NS(=O)(=O)CC(C)C)C[C@@H]3CC[C@@H](C)[C@@](O)(O3)C(=O)C(=O)N3CCCC[C@H]3C(=O)O2)CC[C@H]1O [Compound 9] | 2.7 nM |
| CO[C@@H]1C[C@H](C[C@@H](C)[C@@H]2CC[C@H](C)/C=C(\C)[C@@H](O)[C@@H](OC)C(=O)[C@H](C)C[C@H](C)/C=C/C=C/C=C(\C)[C@H](NS(=O)(=O)CC(C)C)C[C@@H]3CC[C@@H](C)[C@@](O)(O3)C(=O)C(=O)N3CCCC[C@H]3C(=O)O2)CC[C@H]1O [Compound 10] | 12 nM |
| CO[C@@H]1C[C@H](C[C@@H](C)[C@@H]2CC[C@H](C)/C=C(\C)[C@@H](O)[C@@H](OC)C(=O)[C@H](C)C[C@H](C)/C=C/C=C/C=C(\C)[C@@H](NS(=O)(=O)C3CCC3)C[C@@H]3CC[C@@H](C)[C@@](O)(O3)C(=O)C(=O)N3CCCC[C@H]3C(=O)O2)CC[C@H]1O [Compound 13] | 5.3 nM |
| CO[C@@H]1C[C@H](C[C@@H](C)[C@@H]2CC[C@H](C)/C=C(\C)[C@@H](O)[C@@H](OC)C(=O)[C@H](C)C[C@H](C)/C=C/C=C/C=C(\C)[C@H](NS(=O)(=O)C3CCC3)C[C@@H]3CC[C@@H](C)[C@@](O)(O3)C(=O)C(=O)N3CCCC[C@H]3C(=O)O2)CC[C@H]1O [Compound 14] | 7.2 nM |
| CO[C@@H]1C[C@H](C[C@@H](C)[C@@H]2CC[C@H](C)/C=C(\C)[C@@H](O)[C@@H](OC)C(=O)[C@H](C)C[C@H](C)/C=C/C=C/C=C(\C)[C@@H](NS(=O)(=O)C3CCCC3)C[C@@H]3CC[C@@H](C)[C@@](O)(O3)C(=O)C(=O)N3CCCC[C@H]3C(=O)O2)CC[C@H]1O [Compound 15] | 3.6 nM |
| CO[C@@H]1C[C@H](C[C@@H](C)[C@@H]2CC[C@H](C)/C=C(\C)[C@@H](O)[C@@H](OC)C(=O)[C@H](C)C[C@H](C)/C=C/C=C/C=C(\C)[C@H](NS(=O)(=O)C3CCCC3)C[C@@H]3CC[C@@H](C)[C@@](O)(O3)C(=O)C(=O)N3CCCC[C@H]3C(=O)O2)CC[C@H]1O [Compound 16] | 50 nM |
| CO[C@@H]1C[C@H](C[C@@H](C)[C@@H]2CC[C@H](C)/C=C(\C)[C@@H](O)[C@@H](OC)C(=O)[C@H](C)C[C@H](C)/C=C/C=C/C=C(\C)[C@@H](NS(=O)(=O)CCCCl)C[C@@H]3CC[C@@H](C)[C@@](O)(O3)C(=O)C(=O)N3CCCC[C@H]3C(=O)O2)CC[C@H]1O [Compound 17] | 1.6 nM |
| CO[C@@H]1C[C@H](C[C@@H](C)[C@@H]2CC[C@H](C)/C=C(\C)[C@@H](O)[C@@H](OC)C(=O)[C@H](C)C[C@H](C)/C=C/C=C/C=C(\C)[C@@H](NS(=O)(=O)CCO)C[C@@H]3CC[C@@H](C)[C@@](O)(O3)C(=O)C(=O)N3CCCC[C@H]3C(=O)O2)CC[C@H]1O [Compound 19] | 0.34 nM |
| CO[C@@H]1C[C@H](C[C@@H](C)[C@@H]2CC[C@H](C)/C=C(\C)[C@@H](O)[C@@H](OC)C(=O)[C@H](C)C[C@H](C)/C=C/C=C/C=C(\C)[C@H](NS(=O)(=O)CCO)C[C@@H]3CC[C@@H](C)[C@@](O)(O3)C(=O)C(=O)N3CCCC[C@H]3C(=O)O2)CC[C@H]1O [Compound 20] | 1.7 nM |
| CO[C@@H]1C[C@H](C[C@@H](C)[C@@H]2CC[C@H](C)/C=C(\C)[C@@H](O)[C@@H](OC)C(=O)[C@H](C)C[C@H](C)/C=C/C=C/C=C(\C)[C@H](NS(C)(=O)=O)C[C@@H]3CC[C@@H](C)[C@@](O)(O3)C(=O)C(=O)N3CCCC[C@H]3C(=O)O2)CC[C@@H]1n1cnnn1 [Compound 21] | 2.1 nM |
| CO[C@@H]1C[C@H](C[C@@H](C)[C@@H]2CC[C@H](C)/C=C(\C)[C@@H](O)[C@@H](OC)C(=O)[C@H](C)C[C@H](C)/C=C/C=C/C=C(\C)[C@@H](NS(C)(=O)=O)C[C@@H]3CC[C@@H](C)[C@@](O)(O3)C(=O)C(=O)N3CCCC[C@H]3C(=O)O2)CC[C@@H]1n1cnnn1 [Compound 22] | 0.11 nM |
| CO[C@@H]1C[C@H](C[C@@H](C)[C@@H]2CC[C@H](C)/C=C(\C)[C@@H](O)[C@@H](OC)C(=O)[C@H](C)C[C@H](C)/C=C/C=C/C=C(\C)[C@H](NS(C)(=O)=O)C[C@@H]3CC[C@@H](C)[C@@](O)(O3)C(=O)C(=O)N3CCCC[C@H]3C(=O)O2)CC[C@H]1OP(C)(C)=O [Compound 23] | 26 nM |
| CO[C@@H]1C[C@H](C[C@@H](C)[C@@H]2CC[C@H](C)/C=C(\C)[C@@H](O)[C@@H](OC)C(=O)[C@H](C)C[C@H](C)/C=C/C=C/C=C(\C)[C@H](NS(C)(=O)=O)C[C@@H]3CC[C@@H](C)[C@@](O)(O3)C(=O)C(=O)N3CCCC[C@H]3C(=O)O2)CC[C@H]1OCCO [Compound 25] | 1.8 nM |
| CO[C@@H]1C[C@H](C[C@@H](C)[C@@H]2CC[C@H](C)/C=C(\C)[C@@H](O)[C@@H](OC)C(=O)[C@H](C)C[C@H](C)/C=C/C=C/C=C(\C)[C@@H](N(C)S(C)(=O)=O)C[C@@H]3CC[C@@H](C)[C@@](O)(O3)C(=O)C(=O)N3CCCC[C@H]3C(=O)O2)CC[C@H]1OP(C)(C)=O [Compound 27] | 1.9 nM |
| CO[C@@H]1C[C@H](C[C@@H](C)[C@@H]2CC[C@H](C)/C=C(\C)[C@@H](O)[C@@H](OC)C(=O)[C@H](C)C[C@H](C)/C=C/C=C/C=C(\C)[C@@H](N)C[C@@H]3CC[C@@H](C)[C@@](O)(O3)C(=O)C(=O)N3CCCC[C@H]3C(=O)O2)CC[C@H]1O [Compound 28] | 0.35 nM |
| CO[C@@H]1C[C@H](C[C@@H](C)[C@@H]2CC[C@H](C)/C=C(\C)[C@@H](O)[C@@H](OC)C(=O)[C@H](C)C[C@H](C)/C=C/C=C/C=C(\C)[C@H](N)C[C@@H]3CC[C@@H](C)[C@@](O)(O3)C(=O)C(=O)N3CCCC[C@H]3C(=O)O2)CC[C@H]1O [Compound 29] | 30 nM |
| CN[C@@H]1C[C@@H]2CC[C@@H](C)[C@@](O)(O2)C(=O)C(=O)N2CCCC[C@H]2C(=O)O[C@H]([C@H](C)C[C@@H]2CC[C@@H](O)[C@H](OC)C2)CC[C@H](C)/C=C(\C)[C@@H](O)[C@@H](OC)C(=O)[C@H](C)C[C@H](C)/C=C/C=C/C=C/1C [Compound 32] | 18 nM |
| CN[C@H]1C[C@@H]2CC[C@@H](C)[C@@](O)(O2)C(=O)C(=O)N2CCCC[C@H]2C(=O)O[C@H]([C@H](C)C[C@@H]2CC[C@@H](O)[C@H](OC)C2)CC[C@H](C)/C=C(\C)[C@@H](O)[C@@H](OC)C(=O)[C@H](C)C[C@H](C)/C=C/C=C/C=C/1C [Compound 33] | 0.67 nM |
| CO[C@@H]1C[C@H](C[C@@H](C)[C@@H]2CC[C@H](C)/C=C(\C)[C@@H](O)[C@@H](OC)C(=O)[C@H](C)C[C@H](C)/C=C/C=C/C=C(\C)[C@H](N(O)C(=O)OC(C)(C)C)C[C@@H]3CC[C@@H](C)[C@@](O)(O3)C(=O)C(=O)N3CCCC[C@H]3C(=O)O2)CC[C@H]1O [Compound 34] | 27 nM |
| CO[C@@H]1C[C@H](C[C@@H](C)[C@@H]2CC[C@H](C)/C=C(\C)[C@@H](O)[C@@H](OC)C(=O)[C@H](C)C[C@H](C)/C=C/C=C/C=C(\C)[C@@H](N(O)C(=O)OC(C)(C)C)C[C@@H]3CC[C@@H](C)[C@@](O)(O3)C(=O)C(=O)N3CCCC[C@H]3C(=O)O2)CC[C@H]1O [Compound 35] | 4.4 nM |
| CO[C@@H]1C[C@H](C[C@@H](C)[C@@H]2CC[C@H](C)/C=C(\C)[C@@H](O)[C@@H](OC)C(=O)[C@H](C)C[C@H](C)/C=C/C=C/C=C(\C)[C@H](NO)C[C@@H]3CC[C@@H](C)[C@@](O)(O3)C(=O)C(=O)N3CCCC[C@H]3C(=O)O2)CC[C@H]1O [Compound 36] | 1.6 nM |
| CO[C@@H]1C[C@H](C[C@@H](C)[C@@H]2CC[C@H](C)/C=C(\C)[C@@H](O)[C@@H](OC)C(=O)[C@H](C)C[C@H](C)/C=C/C=C/C=C(\C)[C@@H](NO)C[C@@H]3CC[C@@H](C)[C@@](O)(O3)C(=O)C(=O)N3CCCC[C@H]3C(=O)O2)CC[C@H]1O [Compound 37] | 0.21 nM |
